In US6399543B1, “Low foam N,N′-dialkyltartaramide wetting agents” (Air Products and Chemicals, Inc., priority 2001, dated 2002):

What was measured:
Format in all cases: physicochemical
[1] = Concentration of surfactant in filtered saturated solution in distilled water; conditions: shaken ~24 hours
Method: (§1) Saturated solutions of the materials of Examples 1-9 in distilled water were prepared. After shaking the solutions for ˜24 hours, the undissolved material was removed via filtration. Equilibrium surface tension (EST) data were obtained using the Wilhelmy plate method. Equilibrium surface tension values between 65-72 dyne/cm are considered to be indicative of a lack of surface activity (i.e., a lack of surfactancy).

[2] = Equilibrium surface tension (EST), Wilhelmy plate method, saturated aqueous solutions; conditions: for Limiting EST: saturated solution in distilled water, undissolved material filtered off, Wilhelmy plate
Method: where R^1 and R^2 are C4 to C8 alkyl groups, and at least one of R^1 and R^2 is a branched C4 to C8 alkyl group. […] The Wilhelmy plate method of measuring surface tension is described in L. Wilhelmy's article in Ann. Phys. 1863, 119, 177, which is incorporated by reference.
as §1
The limiting surface tensions represent the lowest surface tensions in water which can be achieved for a given surfactant regardless of the amount of surfactant used and is used to evaluate the effectiveness of a surfactant. Lower surface tensions would allow for the elimination of defects upon application of a formulation onto low energy surfaces.

[3] = Foaming properties of aqueous solutions, procedure based upon ASTM D 1173-53; conditions: filtrate of aqueous mixture of the tartaramide; for Initial Foam: foam height at completion of addition
Method: The foaming properties of aqueous solutions of N,N′-di-iso-pentyl L-tartaramide (Ex 1), N,N′-di-2-ethylhexyl L-tartaramide (Ex 5) and two representative nonionic surfactants, a commercial nonylphenol 15 mole ethoxylate surfactant and a commercial C8 alkyl glucoside surfactant, were examined using a procedure based upon ASTM D 1173-53.
In this test, an aqueous mixture of the tartaramides was prepared, any undissolved solids were filtered off, and the filtrate was added from an elevated glass pipette to a glass receiver containing the same filtrate. Regarding the commercial materials, a 0.1 wt % solution of the surfactant was added from an elevated glass pipette to a glass receiver containing the same solution. The foam height was measured at the completion of the addition (“Initial Foam Height”) and the time required for the foam to dissipate at the air-liquid interface (“Time to 0 Foam”) was recorded. This test provides a comparison between the foaming characteristics of various surfactants. In general, in coatings, inks, adhesives, agricultural and electronics cleaning formulations, foam is undesirable because it complicates handling and can lead to coating and print defects, and to inefficient application of agricultural materials.

| Concentration of Surfactant in Solution [1] [wt. %] | Limiting EST [2] [dyne/cm] | Foam after 5 min [3] [cm] | Time to zero foam [3] | Initial Foam [3] [cm] | lowering the equilibrium surface tension of water (in words) [2] | Structure (SMILES) |
| --- | --- | --- | --- | --- | --- | --- |
| <1.5 | 48.0 | 0 | ≦5 sec | 0.5 | – | CC(C)CCNC(=O)[C@H](O)[C@@H](O)C(=O)NCCC(C)C [Ex 1, N,N′-Di-iso-pentyl L-tartaramide] |
| <0.1 | 39.5 | – | – | – | particularly effective | CCCCCCC(C)NC(=O)C(O)C(O)C(=O)NC(C)CCCCCC [Ex 2, N,N′-Di-1-methylheptyl L-tartaramide] |
| <0.1 | 38.0 | – | – | – | particularly effective | CC(C)CCCC(C)NC(=O)C(O)C(O)C(=O)NC(C)CCCC(C)C [Ex 3, N,N′-Di-1,5-dimethylhexyl L-tartaramide] |
| <0.1 | 41.5 | – | – | – | particularly effective | CCCCCC(C)NC(=O)C(O)C(O)C(=O)NC(C)CCCCC [Ex 4, N,N′-Di-1-methylhexyl L-tartaramide] |
| <0.1 | 41.4 | 0 | ˜3 sec | 1.5 | particularly effective | CCCCC(CC)CNC(=O)C(O)C(O)C(=O)NCC(CC)CCCC [Ex 5, N,N′-Di-2-ethylhexyl L-tartaramide] |
| <1.0 | 67.7 | – | – | – | – | CCCNC(=O)[C@H](O)[C@@H](O)C(=O)NCCC [Ex 6, N,N′-Di-n-propyl L-tartaramide] |
| <1.0 | 65.0 | – | – | – | – | CCCCNC(=O)[C@H](O)[C@@H](O)C(=O)NCCCC [Ex 7, N,N′-Di-n-butyl L-tartaramide] |
| <0.1 | 67.8 | – | – | – | – | CCCCCCNC(=O)[C@H](O)[C@@H](O)C(=O)NCCCCCC [Ex 8, N,N′-Di-n-hexyl L-tartaramide] |
| <0.1 | 67.9 | – | – | – | – | O=C(NC1CCCCC1)[C@H](O)[C@@H](O)C(=O)NC1CCCCC1 [Ex 9, N,N′-Di-cyclohexyl L-tartaramide] |
